Test results: publication PMC7914897, “Cytotoxic Potential of a-Azepano- and 3-Amino-3,4-SeCo-Triterpenoids” (International Journal of Molecular Sciences, 2021)
Like-named read-outs stand apart in the source and are kept apart here.

What was measured:
CAKI-1 (Renal cancer) = assay: NCI-60 screen (SRB, 48 h); details: Homo sapiens; for GI50: CAKI-1
ACHN (Renal cancer) = assay: NCI-60 screen (SRB, 48 h); details: Homo sapiens; for IC (TGI): 48 h, read-out: TGI
Ovarian Cancer subpanel = assay: NCI-60 screen, subpanel; details: Homo sapiens; for IC (TGI): 48 h, read-out: TGI MG_MID; for GI50: read-out: GI50 MG_MID; for CC50: read-out: LC50 MG_MID
[1] = test system: NIH 3T3 (non-malignant mouse fibroblasts); assay: SRB cytotoxicity assay, 72 h; type: cell-based; details: Mus musculus, NIH3T3; NIH 3T3, 72 h, cut-off 30 µM; read-out: EC50
Protocol: (§1) The cytotoxicity of compounds 1–20 was evaluated by means of a colorimetric sulforhodamine B (SRB) assay. For all compounds, the EC50 values were determined for the human tumor cell lines A375 (malignant melanoma), HT29 (colorectal carcinoma), MCF-7 (breast carcinoma), A2780 (ovarian carcinoma), FaDu (hypopharyngeal carcinoma), and NIH 3T3 (non-malignant mouse fibroblasts).
(§2) In short, exponentially growing cells were seeded into 96-well plates on day 0 at the appropriate cell densities to prevent confluence of the cells during the period of experiment. After 24 h, the cells were treated with serial dilutions of the compounds (0–30 µM) for 72 h. The final concentration of DMSO never exceeded 0.5%, which was non-toxic to the cells. After a 72 h treatment, the supernatant medium from the 96-well plates was discarded, and the cells were fixed with 10% TCA. For a thorough fixation, the plates were allowed to rest at 4 °C. After fixation, the cells were washed in a strip washer. The washing was done four times with water using alternate dispensing and aspiration procedures. The plates were then dyed with 100 µL of 0.4% SRB for about 20 min. After dying, the plates were washed with 1% acetic acid to remove the excess of the dye and allowed to air-dry overnight. Tris base solution (200 µL, 10 mM) was added to each well and absorbance was measured at λ = 570 nm (using a 96 well plate reader, Tecan Spectra, Crailsheim, Germany). The percentages of surviving cells relative to untreated controls were determined.

SN12C (Renal cancer) = assay: NCI-60 screen (SRB, 48 h); details: Homo sapiens; for IC (TGI): 48 h, read-out: TGI
[2] = test system: NCI-H322M (NSC lung cancer); assay: NCI-60 screen (SRB, 48 h); details: Homo sapiens; for IC (TGI): 48 h, read-out: TGI
UACC-62 (Melanoma) = assay: NCI-60 screen (SRB, 48 h); details: Homo sapiens; for GI50: UACC-62; for IC (TGI): UACC-62, 48 h, read-out: TGI; for CC50: UACC-62, read-out: LC50
[3] = test system: NCI-H23 (NSC lung cancer); assay: NCI-60 screen (SRB, 48 h); details: Homo sapiens; for GI50: NCI-H23; for IC (TGI): NCI-H23, 48 h, read-out: TGI
SF-268 (CNS cancer) = assay: NCI-60 screen (SRB, 48 h); details: Homo sapiens; for GI50: SF-268
[4] = test system: A549/ATCC (NSC lung cancer); assay: NCI-60 screen (SRB, 48 h); details: Homo sapiens; for GI50: A549
SW-620 (Colon cancer) = assay: NCI-60 screen (SRB, 48 h); details: Homo sapiens; for GI50: SW-620; for IC (TGI): SW-620, 48 h, read-out: TGI; for CC50: SW-620, read-out: LC50
M14 (Melanoma) = assay: NCI-60 screen (SRB, 48 h); details: for GI50 / IC (TGI) / CC50: Homo sapiens; for GI50: M14; for IC (TGI): M14, 48 h, read-out: TGI; for CC50: M14, read-out: LC50
SF-539 (CNS cancer) = assay: NCI-60 screen (SRB, 48 h); details: Homo sapiens; for GI50: SF-539; for IC (TGI): SF-539, 48 h, read-out: TGI
[5] = test system: panel of approximately 60 cancer cell lines; assay: NCI-60 screen (SRB, 48 h), full panel; details: for Positive Cytostatic Effect (cell lines with percent growth 0 to 50 / total) / Positive Cytotoxic Effect (cell lines with percent growth < 0 / total) / number of cancer cell lines the compound was active against: 1 dose 10 µM; for activity at 10 µM / IC (TGI) / GI50 / CC50: Homo sapiens; for activity at 10 µM / IC (TGI): 48 h; for IC (TGI): read-out: TGI MG_MID60, average over all cell lines; for CC50: read-out: LC50 MG_MID60, average over all cell lines
MCF-7 (breast carcinoma) = assay: SRB cytotoxicity assay, 72 h; type: cell-based, human; details: Homo sapiens, MCF7; MCF-7, 72 h, cut-off 30 µM; read-out: EC50
Protocol: as §1, §2

[6] = test system: A2780 (ovarian carcinoma); assay: SRB cytotoxicity assay, 72 h; type: cell-based, human; details: Homo sapiens; A2780, 72 h, cut-off 30 µM; read-out: EC50
Protocol: as §1, §2

[7] = test system: FaDu (hypopharyngeal carcinoma); assay: SRB cytotoxicity assay, 72 h; type: cell-based, human; details: Homo sapiens, cut-off 30 µM, read-out: EC50
Protocol: as §1, §2

[8] = test system: A375 (malignant melanoma); assay: SRB cytotoxicity assay, 72 h; type: cell-based, human; details: Homo sapiens, A-375, 72 h, A375, 72 h, cut-off 30 µM; read-out: EC50
Protocol: as §1, §2

[9] = test system: HT29 (colorectal carcinoma); assay: SRB cytotoxicity assay, 72 h; type: cell-based, human; details: Homo sapiens, HT-29; HT29, 72 h, cut-off 30 µM; read-out: EC50
Protocol: as §1, §2

OVCAR-8 (Ovarian cancer) = assay: NCI-60 screen (SRB, 48 h); details: Homo sapiens; for GI50: OVCAR-8
CNS cancer subpanel = assay: NCI-60 screen, subpanel; details: Homo sapiens; for IC (TGI): 48 h, read-out: TGI MG_MID; for GI50: read-out: GI50 MG_MID
PC-3 (Prostate cancer) = assay: NCI-60 screen (SRB, 48 h); details: Homo sapiens; for GI50: PC-3
HS 578T (Breast cancer) = assay: NCI-60 screen (SRB, 48 h); details: Homo sapiens
TK-10 (Renal cancer) = assay: NCI-60 screen (SRB, 48 h); details: Homo sapiens; for GI50: TK-10; for IC (TGI): TK-10, 48 h, read-out: TGI
[10] = read-out: GI50 against all human tumor cell lines

C[C@H]1[C@H](C)CC[C@]2(C(=O)Nc3ccc4ncccc4c3)CC[C@]3(C)C(=CC[C@@H]4[C@@]5(C)CCCNC(C)(C)[C@@H]5CC[C@]43C)[C@H]12 [Compound 14]
GI50 (CAKI-1 (Renal cancer)): 1.56 µM
GI50 (ACHN (Renal cancer)): 1.77 µM
IC (TGI) (ACHN (Renal cancer)): 3.24 µM
IC (TGI) (Ovarian Cancer subpanel): 3.3 µM
GI50 (Ovarian Cancer subpanel): 1.77 µM
CC50 (Ovarian Cancer subpanel): 6.69 µM
EC50 [1]: 1.69 ± 0.1 µM
GI50 (SN12C (Renal cancer)): 1.73 µM
IC (TGI) (SN12C (Renal cancer)): 3.33 µM
GI50 [2]: 1.72 µM
IC (TGI) [2]: 3.11 µM
GI50 (UACC-62 (Melanoma)): 1.74 µM
IC (TGI) (UACC-62 (Melanoma)): 3.23 µM
CC50 (UACC-62 (Melanoma)): 6 µM
GI50 [3]: 1.76 µM
IC (TGI) [3]: 3.39 µM
GI50 (SF-268 (CNS cancer)): 1.73 µM
GI50 [4]: 1.81 µM
GI50 (SW-620 (Colon cancer)): 1.8 µM
IC (TGI) (SW-620 (Colon cancer)): 3.37 µM
CC50 (SW-620 (Colon cancer)): 6.31 µM
GI50 (M14 (Melanoma)): 1.94 µM
IC (TGI) (M14 (Melanoma)): 3.59 µM
CC50 (M14 (Melanoma)): 6.65 µM
Growth % of the Most Sensitive Cell Lines (M14 (Melanoma); M14, 1 dose 10 µM): −92.02%
GI50 (SF-539 (CNS cancer)): 1.61 µM
IC (TGI) (SF-539 (CNS cancer)): 3.01 µM
Positive Cytostatic Effect (cell lines with percent growth 0 to 50 / total) [5]: 3/59
Positive Cytotoxic Effect (cell lines with percent growth < 0 / total) [5]: 42/59
number of cancer cell lines the compound was active against [5]: 45 cell lines
activity at 10 µM ([5]; read-out: Mean Growth, %): -27.9%
activity at 10 µM ([5]; read-out: Range of Growth, %): -100 to 110%
IC (TGI) [5]: 3.35 µM
GI50 ([5]; read-out: GI50 MG_MID60): 1.72 µM
GI50 [5, 10]: < 3 µM
CC50 [5]: 6.52 µM
EC50 (MCF-7 (breast carcinoma)): 1.64 ± 0.1 µM
EC50 [6]: 1.8 ± 0.1 µM
EC50 [7]: 1.79 ± 0.2 µM
EC50 [8]: 1.57 ± 0.8 µM
EC50 [9]: 1.55 ± 0.1 µM
GI50 (OVCAR-8 (Ovarian cancer)): 1.86 µM
IC (TGI) (CNS cancer subpanel): 3.17 µM
GI50 (CNS cancer subpanel): 1.67 µM
GI50 (PC-3 (Prostate cancer)): 1.76 µM
GI50 (HS 578T (Breast cancer)): 1.96 µM
GI50 (TK-10 (Renal cancer)): 1.69 µM
IC (TGI) (TK-10 (Renal cancer)): 3.2 µM

C[C@H]1[C@H](C)CC[C@]2(CO)CC[C@]3(C)C(=CC[C@@H]4[C@@]5(C)CCCNC(C)(C)[C@@H]5CC[C@]43C)[C@H]12 [Compound 4, azepanouvaol]
GI50 (CAKI-1 (Renal cancer)): 1.62 µM
IC (TGI) (CAKI-1 (Renal cancer); CAKI-1, 48 h, read-out: TGI): 3.23 µM
CC50 (CAKI-1 (Renal cancer); CAKI-1, read-out: LC50): 6.43 µM
GI50 (ACHN (Renal cancer)): 1.69 µM
IC (TGI) (ACHN (Renal cancer)): 3.06 µM
CC50 (ACHN (Renal cancer); read-out: LC50): 5.54 µM
IC (TGI) (Ovarian Cancer subpanel): 3.59 µM
GI50 (Ovarian Cancer subpanel): 1.91 µM
CC50 (Ovarian Cancer subpanel): 11.4 µM
EC50 [1]: 2.77 ± 0.4 µM
GI50 (SN12C (Renal cancer)): 1.64 µM
IC (TGI) (SN12C (Renal cancer)): 3.11 µM
CC50 (SN12C (Renal cancer); read-out: LC50): 5.87 µM
GI50 [2]: 1.73 µM
IC (TGI) [2]: 3.19 µM
CC50 ([2]; read-out: LC50): 5.89 µM
GI50 (UACC-62 (Melanoma)): 1.85 µM
IC (TGI) (UACC-62 (Melanoma)): 3.35 µM
CC50 (UACC-62 (Melanoma)): 6.06 µM
GI50 [3]: 1.65 µM
IC (TGI) [3]: 3.26 µM
CC50 ([3]; NCI-H23, read-out: LC50): 6.47 µM
GI50 (SF-268 (CNS cancer)): 1.79 µM
IC (TGI) (SF-268 (CNS cancer); SF-268, 48 h, read-out: TGI): 3.5 µM
CC50 (SF-268 (CNS cancer); SF-268, read-out: LC50): 6.84 µM
GI50 [4]: 1.74 µM
IC (TGI) ([4]; A549, 48 h, read-out: TGI): 3.28 µM
CC50 ([4]; A549, read-out: LC50): 6.16 µM
GI50 (SW-620 (Colon cancer)): 1.79 µM
IC (TGI) (SW-620 (Colon cancer)): 3.54 µM
CC50 (SW-620 (Colon cancer)): 7.03 µM
GI50 (M14 (Melanoma)): 1.61 µM
IC (TGI) (M14 (Melanoma)): 3.12 µM
CC50 (M14 (Melanoma)): 6.04 µM
GI50 (SF-539 (CNS cancer)): 1.69 µM
IC (TGI) (SF-539 (CNS cancer)): 3.16 µM
CC50 (SF-539 (CNS cancer); SF-539, read-out: LC50): 5.9 µM
Positive Cytostatic Effect (cell lines with percent growth 0 to 50 / total) [5]: 18/59
Positive Cytotoxic Effect (cell lines with percent growth < 0 / total) [5]: 40/59
number of cancer cell lines the compound was active against [5]: 57 cell lines
activity at 10 µM ([5]; read-out: Mean Growth, %): -31.9%
activity at 10 µM ([5]; read-out: Range of Growth, %): -99 to 23%
IC (TGI) [5]: 3.31 µM
GI50 ([5]; read-out: GI50 MG_MID60): 1.65 µM
GI50 [5, 10]: < 3 µM
GI50 ([5]; read-out: GI50 against the most sensitive cell lines): 0.2 to 0.94 µM
CC50 [5]: 7.64 µM
EC50 (MCF-7 (breast carcinoma)): 2.3 ± 0.2 µM
EC50 [6]: 2.63 ± 0.1 µM
EC50 [7]: 1.69 ± 0.4 µM
EC50 [8]: 2.4 ± 0.2 µM
EC50 [9]: 1.71 ± 0.3 µM
GI50 (OVCAR-8 (Ovarian cancer)): 1.96 µM
IC (TGI) (OVCAR-8 (Ovarian cancer); OVCAR-8, 48 h, read-out: TGI): 3.61 µM
CC50 (OVCAR-8 (Ovarian cancer); OVCAR-8, read-out: LC50): 6.67 µM
IC (TGI) (CNS cancer subpanel): 3.2 µM
GI50 (CNS cancer subpanel): 1.69 µM
CC50 (CNS cancer subpanel; read-out: LC50 MG_MID): 6.06 µM
GI50 (PC-3 (Prostate cancer)): 1.55 µM
IC (TGI) (PC-3 (Prostate cancer); PC-3, 48 h, read-out: TGI): 2.97 µM
CC50 (PC-3 (Prostate cancer); PC-3, read-out: LC50): 5.66 µM
GI50 (HS 578T (Breast cancer)): 2.05 µM
IC (TGI) (HS 578T (Breast cancer); 48 h, read-out: TGI): 4.86 µM
CC50 (HS 578T (Breast cancer); read-out: LC50): 32.6 µM
GI50 (TK-10 (Renal cancer)): 1.84 µM
IC (TGI) (TK-10 (Renal cancer)): 3.32 µM
CC50 (TK-10 (Renal cancer); TK-10, read-out: LC50): 5.97 µM
